Laboratory results from article PMC9963398, “Discovery of New Quinolone-Based Diarylamides as Potent B-RAF^V600E/C-RAF Kinase Inhibitors Endowed with Promising In Vitro Anticancer Activity” (International Journal of Molecular Sciences, 2023).

Legend:
SNB-19 = assay: NCI-60 five-dose SRB assay; format: cell-based; settings: Homo sapiens; SNB-19, CNS cancer, five-dose test
Procedure: (§1) The anticancer screening of target compounds over a full panel of 60 human cancer cell lines was carried out using Sulforhodamine B (SRB) assay at the National Cancer Institute (NCI), Bethesda, Maryland, USA, employing the standard protocol.

NCI-H322M = assay: NCI-60 five-dose SRB assay; format: cell-based; settings: Homo sapiens, NSCL cancer, five-dose test
Procedure: as §1

BT-549 = assay: NCI-60 five-dose SRB assay; format: cell-based; settings: Homo sapiens; BT-549, Breast cancer, five-dose test
Procedure: as §1

HOP-62 = assay: NCI-60 five-dose SRB assay; format: cell-based; settings: Homo sapiens; HOP-62, NSCL cancer, five-dose test
Procedure: as §1

HCT-15 = assay: NCI-60 five-dose SRB assay; format: cell-based; settings: Homo sapiens; HCT-15, Colon cancer, five-dose test
Procedure: as §1

A549/ATCC = assay: NCI-60 five-dose SRB assay; format: cell-based; settings: Homo sapiens, NSCL cancer, five-dose test
Procedure: as §1

786-0 = assay: NCI-60 five-dose SRB assay; format: cell-based; settings: Homo sapiens; 786-0, Renal cancer, five-dose test
Procedure: as §1

LOX IMVI = assay: NCI-60 five-dose SRB assay; format: cell-based; settings: Homo sapiens, Melanoma, five-dose test
Procedure: as §1

EKVX = assay: NCI-60 five-dose SRB assay; format: cell-based; settings: Homo sapiens, NSCL cancer, five-dose test
Procedure: as §1

SF-268 = assay: NCI-60 five-dose SRB assay; format: cell-based; settings: Homo sapiens; SF-268, CNS cancer, five-dose test
Procedure: as §1

KM12 = assay: NCI-60 five-dose SRB assay; format: cell-based; settings: Homo sapiens; KM12, Colon cancer, five-dose test
Procedure: as §1

SNB-75 = assay: NCI-60 five-dose SRB assay; format: cell-based; settings: Homo sapiens; SNB-75, CNS cancer, five-dose test
Procedure: as §1

UACC-257 = assay: NCI-60 five-dose SRB assay; format: cell-based; settings: Homo sapiens; UACC-257, Melanoma, five-dose test
Procedure: as §1

K-562 = assay: NCI-60 five-dose SRB assay; format: cell-based; settings: Homo sapiens, K562; K-562, Leukemia, five-dose test
Procedure: as §1

RPMI-8226 = assay: NCI-60 five-dose SRB assay; format: cell-based; settings: Homo sapiens; RPMI-8226, Leukemia, five-dose test
Procedure: as §1

SK-MEL-28 = assay: NCI-60 five-dose SRB assay; format: cell-based; settings: Homo sapiens; SK-MEL-28, Melanoma, five-dose test
Procedure: as §1

SW-620 = assay: NCI-60 five-dose SRB assay; format: cell-based; settings: Homo sapiens; SW-620, Colon cancer, five-dose test
Procedure: as §1

MALME-3M = assay: NCI-60 five-dose SRB assay; format: cell-based; settings: Homo sapiens, Melanoma, five-dose test
Procedure: as §1

RXF 393 = assay: NCI-60 five-dose SRB assay; format: cell-based; settings: Homo sapiens; RXF 393, Renal cancer, five-dose test
Procedure: as §1

M14 = assay: NCI-60 five-dose SRB assay; format: cell-based; settings: Homo sapiens; M14, Melanoma, five-dose test
Procedure: as §1

[1] = test system: NCI-60 human cancer cell lines; assay: NCI-60 single dose (10 µM) testing; format: cell-based; settings: single dose 10 µM
Procedure: Encouraged by the promising results in the cell-free assay, the antiproliferative activity of all final compounds was evaluated by the National Cancer Institute (NCI) in a single dose of 10 µM over a library of 60 human cancer cell lines representing nine cancer types; leukemia, non-small cell lung (NSCL), colon, central nervous system (CNS), melanoma, ovarian, renal, prostate, and breast cancer.

[2] = test system: NCI-60 human tumor cell lines; assay: NCI-60 five-dose testing, ranges over panel or subpanel; format: cell-based; settings: for GI50: Homo sapiens
Procedure: as §1

NCI/ADR-RES = assay: NCI-60 five-dose SRB assay; format: cell-based; settings: Homo sapiens, Ovarian cancer, five-dose test
Procedure: as §1

B-RAF^V600K = target: T1, B-RAF^V600K (Homo sapiens, UniProt P15056, V600K); assay: HotSpot kinase assay (RBC), B-RAF^V600K; format: biochemical; settings: 10 µM ATP
T1 construct: purchased Reaction Biology Corporation (RBC), Kinase HotSpot service
T1 sequence (P15056 whole entry V600K): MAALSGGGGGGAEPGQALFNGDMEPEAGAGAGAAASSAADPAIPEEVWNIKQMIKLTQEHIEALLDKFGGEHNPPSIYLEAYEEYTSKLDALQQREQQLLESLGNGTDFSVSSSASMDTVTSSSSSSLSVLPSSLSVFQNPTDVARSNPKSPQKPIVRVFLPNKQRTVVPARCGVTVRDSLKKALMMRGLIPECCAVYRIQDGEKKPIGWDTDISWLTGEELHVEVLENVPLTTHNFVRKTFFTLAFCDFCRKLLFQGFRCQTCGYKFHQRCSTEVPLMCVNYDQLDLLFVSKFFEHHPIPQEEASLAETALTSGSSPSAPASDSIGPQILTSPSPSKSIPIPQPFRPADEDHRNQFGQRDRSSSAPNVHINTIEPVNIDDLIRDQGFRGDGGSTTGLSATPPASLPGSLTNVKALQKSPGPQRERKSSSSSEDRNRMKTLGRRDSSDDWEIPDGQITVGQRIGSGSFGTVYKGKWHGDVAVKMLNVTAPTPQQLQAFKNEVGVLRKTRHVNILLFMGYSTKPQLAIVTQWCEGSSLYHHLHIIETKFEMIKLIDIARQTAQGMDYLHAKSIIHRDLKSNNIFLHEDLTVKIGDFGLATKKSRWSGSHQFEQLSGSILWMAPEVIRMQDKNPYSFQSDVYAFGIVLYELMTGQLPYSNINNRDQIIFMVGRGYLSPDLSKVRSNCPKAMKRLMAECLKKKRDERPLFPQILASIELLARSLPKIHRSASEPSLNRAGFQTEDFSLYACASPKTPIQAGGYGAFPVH
Procedure: To gain insight into the inhibitory mode of this new array of quinolines, 18a was tested at 1 µM concentration of ATP to compare it with its IC50 at 10 µM (Table 2).

[3] = MALME-3M, MDA-MB-435, SK-MEL-2, and UACC-62
[4] = melanoma LOX IMVI, SK-MEL-28, and SK-MEL-5
[5] = NSCL cell lines, range over lines
[6] = colon cancer cell lines, range over lines

COc1ccc2nc(Nc3cccc(NC(=O)c4ccc(CN5CCN(C)CC5)c(C(F)(F)F)c4)c3)ccc2c1 [Compound 16a, N-(3-((6-methoxyquinolin-2-yl)amino)phenyl)-4-((4-methylpiperazin-1-yl)methyl)-3-(trifluoromethyl)benzamide]
GI50 (SNB-19): 6.14 µM
GI50 (NCI-H322M): 6.06 µM
GI50 (BT-549): 5.58 µM
GI50 (HOP-62): 6.36 µM
GI50 (HCT-15): 1.18 µM
GI50 (A549/ATCC): 4.36 µM
GI50 (786-0): 5 µM
GI50 (LOX IMVI): 1.55 µM
GI50 (EKVX): 4.53 µM
GI50 (SF-268): 5.2 µM
GI50 (KM12): 4.05 µM
GI50 (SNB-75): 0.684 µM
GI50 (UACC-257): 4.35 µM
GI50 (K-562): 0.882 µM
GI50 (RPMI-8226): 3.14 µM
GI50 (SK-MEL-28): 5.33 µM
GI50 (SW-620): 5.89 µM
GI50 (MALME-3M): 4.62 µM
GI50 (RXF 393): 1.75 µM
GI50 (M14): 3.63 µM

CN1CCN(Cc2ccc(C(=O)Nc3cccc(Nc4ccc5c(O)cccc5n4)c3)cc2C(F)(F)F)CC1 [Compound 17a, N-(3-((5-hydroxyquinolin-2-yl)amino)phenyl)-4-((4-methylpiperazin-1-yl)methyl)-3-(trifluoromethyl)benzamide]
growth percent [1, 3]: less than -90
growth percent [1, 4]: −100
GI50 ([2]; MOLT-4, all leukemia cell lines, except MOLT-4): > 2 µM
GI50 (SNB-19): 2.39 µM
GI50 (NCI-H322M): 3.23 µM
GI50 (BT-549): 15.6 µM
GI50 (HOP-62): 3 µM
GI50 (HCT-15): 1.82 µM
GI50 (A549/ATCC): 4.5 µM
GI50 (786-0): 2.11 µM
GI50 (LOX IMVI): 1.65 µM
GI50 (EKVX): 3.75 µM
GI50 (SF-268): 3.81 µM
GI50 (KM12): 2.3 µM
GI50 (SNB-75): 1.85 µM
GI50 (UACC-257): 1.92 µM
GI50 (K-562): 2.42 µM
GI50 (RPMI-8226): 2.92 µM
GI50 (SK-MEL-28): 1.77 µM
GI50 (SW-620): 2.24 µM
GI50 (MALME-3M): 1.67 µM
GI50 (NCI/ADR-RES): 3.45 µM
GI50 (RXF 393): 1.66 µM
GI50 (M14): 2.21 µM

CN1CCN(Cc2ccc(C(=O)Nc3cccc(Nc4ccc5cc(O)ccc5n4)c3)cc2C(F)(F)F)CC1 [Compound 18a, N-(3-((6-hydroxyquinolin-2-yl)amino)phenyl)-4-((4-methylpiperazin-1-yl)methyl)-3-(trifluoromethyl)benzamide]
growth percent [1, 3]: less than -90
growth percent [1, 4]: −100
GI50 ([2]; LOX IMVI, MALME-3M, and SK-MEL-28): 1.59 to 1.79 µM
GI50 [2, 5]: 3.39 to 17.8 µM
GI50 [2, 6]: 2.09 to 18.5 µM
GI50 increase relative to 17a ([2]; other melanoma cell lines): 1.37–9.11 fold
IC50 (B-RAF^V600K): < 0.00508 µM
GI50 (SNB-19): 13.8 µM
GI50 (NCI-H322M): 11 µM
GI50 (BT-549): 12.2 µM
GI50 (HOP-62): 12.1 µM
GI50 (HCT-15): 2.09 µM
GI50 (A549/ATCC): 8.7 µM
GI50 (786-0): 3.13 µM
GI50 (LOX IMVI): 1.73 µM
GI50 (EKVX): 14.2 µM
GI50 (SF-268): 10.4 µM
GI50 (KM12): 3.16 µM
GI50 (SNB-75): 0.656 µM
GI50 (UACC-257): 7.35 µM
GI50 (K-562): 1.88 µM
GI50 (RPMI-8226): 2.65 µM
GI50 (SK-MEL-28): 1.79 µM
GI50 (SW-620): 2.3 µM
GI50 (MALME-3M): 1.59 µM
GI50 (RXF 393): 3.55 µM
GI50 (M14): 9.06 µM

CN1CCCN(Cc2ccc(C(=O)Nc3cccc(Nc4ccc5cc(O)ccc5n4)c3)cc2C(F)(F)F)CC1 [Compound 18b, N-(3-((6-hydroxyquinolin-2-yl)amino)phenyl)-4-((4-methyl-1,4-diazepan-1-yl)methyl)-3-(trifluoromethyl)benzamide]
effect on cell growth ([1]; LOX IMVI): lethal effect
growth percent ([1]; melanoma SK-MEL-29, SK-MEL-5, and UACC-62): under −90%
GI50 [2, 5]: 3.39 to 17.8 µM
GI50 [2, 6]: 2.09 to 18.5 µM
GI50 ([2]; melanoma cell lines, range over lines): 10.4 to 17.2 µM
GI50 (SNB-19): 17 µM
GI50 (NCI-H322M): 16.2 µM
GI50 (HOP-62): 17.8 µM
GI50 (HCT-15): 16.4 µM
GI50 (A549/ATCC): 16.2 µM
GI50 (786-0): 16 µM
GI50 (LOX IMVI): 12.1 µM
GI50 (EKVX): 16 µM
GI50 (SF-268): 17.3 µM
GI50 (KM12): 14.1 µM
GI50 (SNB-75): 1.17 µM
GI50 (UACC-257): 14.7 µM
GI50 (K-562): 1.18 µM
GI50 (RPMI-8226): 11.4 µM
GI50 (SK-MEL-28): 13.9 µM
GI50 (SW-620): 14.5 µM
GI50 (MALME-3M): 12.6 µM
GI50 (RXF 393): 12.5 µM
GI50 (M14): 12.7 µM
